# Assays:
# [1] = system: Irs2 and Ins2; assay: mRNA expression levels of Irs2 and Ins2 by RT-PCR; type: cell-based
# Experimental: The mRNA expression levels of Irs2 and Ins2, which are important factors for proliferation and differentiation of pancreatic beta cells, were analyzed through RT-PCR (FIG. 77).
# [2] = target: T1, GPR39 (Homo sapiens, UniProt O43194); assay: luciferase assay system (SRE luciferase reporter gene) for GPR39 in CV-1 cells
# T1 sequence (O43194 1-453): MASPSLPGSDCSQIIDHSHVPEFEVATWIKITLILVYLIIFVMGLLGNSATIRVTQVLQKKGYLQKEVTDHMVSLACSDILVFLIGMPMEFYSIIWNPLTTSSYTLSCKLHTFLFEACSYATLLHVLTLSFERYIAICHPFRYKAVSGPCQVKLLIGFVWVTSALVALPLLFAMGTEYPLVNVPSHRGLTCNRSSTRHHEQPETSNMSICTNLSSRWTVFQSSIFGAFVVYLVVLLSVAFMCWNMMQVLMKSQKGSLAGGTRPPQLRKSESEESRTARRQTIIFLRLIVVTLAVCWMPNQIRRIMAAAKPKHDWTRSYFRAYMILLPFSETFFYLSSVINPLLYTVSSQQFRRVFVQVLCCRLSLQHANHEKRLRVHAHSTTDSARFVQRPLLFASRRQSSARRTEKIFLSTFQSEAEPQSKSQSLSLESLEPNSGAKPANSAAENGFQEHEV
# Experimental: (§3) Specifically, the fibroblast cell line CV-1 (1×10^5 cells/ml, Korea Cell Line Bank) was cultured in a 96 well cell culture plate for 24 hours, and then treated with GPR39 inserted into adenovirus and SRE (serum response element) luciferase at 50 MOI (multiplicity of infection) and 25 MOI virus for 3 hours, respectively, and then cultured for 24 hours.
# [3] = system: pERK and pPKA in WAT cells; assay: pERK and pPKA expression by western blot in WAT; type: cell-based, mice; conditions: FIG. 86
# Experimental: In order to analyze the mechanism of lipolytic ability according to the HKFY derivative treatment in 3T3-L1 cells and WAT cells, the expression levels of pERK and pPKA were analyzed (FIGS. 85 and 86).
# Specifically, protein was purified from 3T3L-1 cells (Korea Cell Line Bank) and WAT (tissue culture using mice purchased from Central Lab. Animal Inc.) treated with the HKFY derivatives, and then each antibody for pERK, ERK, pPKA, and PKA expressed in mice was used, and the expression level of each protein due to the derivatives was measured through western blot.
# [4] = system: db/db mice; assay: glucose tolerance test in mouse model of diabetes mellitus disease; type: in vivo; conditions: db/db mice, 0.5, 1, 5 and 10 mg/kg subcutaneously, glucose 1.5 g/kg i.p. after 30 minutes
# Experimental: The glucose tolerance level in a mouse model of diabetes mellitus disease according to the HKFY derivative treatment was analyzed (FIG. 87).
# Specifically, male db/db mice (5 to 7-week-old, Central Lab. Animal Inc.), which is a mouse model of diabetes mellitus disease, were fasted for 16 hours, and then HKFY-34 was administered subcutaneously at a concentration of 0.5, 1, 5 and 10 mg/kg, respectively. After 30 minutes, glucose (1.5 g/kg) was intraperitoneally administered. After 0, 15, 30, 45, 60, 90, 120 and 180 minutes, blood was collected from the tail of the mice, and the blood glucose was measured with a blood glucose meter (acc-check, Roche, Germany) to analyze the glucose tolerance.
# [5] = target: T1, GPR39
# Experimental: as §3
# [6] = system: C57BL6/J mice with high-fat feed (DIO); assay: insulin level in mouse model of obesity disease (DIO); type: in vivo; conditions: FIG. 90
# Experimental: In addition, the glucose tolerance level and insulin level according to HKFY-34 treatment in a mouse model of obesity disease were analyzed (FIGS. 89 and 90).
# Specifically, in the glucose tolerance level and insulin level analysis experiment, the experiment was performed by changing the mouse model of diabetes mellitus disease into a mouse model of obesity disease (DIO), in which obesity was induced by providing male C57BL6/J mice (6 to 7-week-old, Central Lab. Animal Inc.) with a high-fat feed (60% fat chow) for 5-6 weeks.
# [7] = target: T2, NMU1 (Homo sapiens, UniProt Q9HB89); assay: luciferase assay system, ghrelin receptor family selectivity; type: cell-based; conditions: compared with intrinsic ligand, FIG. 74
# T2 construct: expressed in transfected cells
# Experimental: (§1) In addition, through the activity test of the HKFY derivatives for similar receptors to GPR39, ghrelin receptor family (ghrelin receptor (GHSR), motilin receptor (MTLR), neurotensin receptor (NTSR1 & NTSR2), neuromedin U receptor (NMU1 & NMU2), TRH (thyrotropin releasing hormone) receptor (TRHR)), the selectivity and specificity for the GPR39 receptor were confirmed.
# (§2) Specifically, the degree of activity between the intrinsic ligand and HKFY-34 for each receptor was analyzed using a luciferase assay system (FIG. 74).
# [8] = target: T3, NMU2 (Homo sapiens, UniProt Q9GZQ4); assay: as above; type: cell-based; conditions: compared with intrinsic ligand, FIG. 74
# T3 construct: expressed in transfected cells
# Experimental: as §1, §2
# [9] = target: T4, MTLR (Homo sapiens, UniProt O43193); assay: as above; type: cell-based; conditions: compared with intrinsic ligand, FIG. 74
# T4 construct: expressed in transfected cells
# Experimental: as §1, §2
# [10] = target: T5, NTSR1 (Homo sapiens, UniProt P30989); assay: as above; type: cell-based; conditions: compared with intrinsic ligand, FIG. 74
# T5 construct: expressed in transfected cells
# Experimental: as §1, §2
# [11] = target: T6, GHSR (Homo sapiens, UniProt Q92847); assay: as above; type: cell-based; conditions: compared with intrinsic ligand, FIG. 74
# T6 construct: expressed in transfected cells
# Experimental: as §1, §2
# [12] = target: T7, TRHR (Homo sapiens, UniProt P34981); assay: as above; type: cell-based; conditions: compared with intrinsic ligand, FIG. 74
# T7 construct: expressed in transfected cells
# Experimental: as §1, §2
# [13] = target: T8, NTSR2 (Homo sapiens, UniProt O95665); assay: as above; type: cell-based; conditions: compared with intrinsic ligand, FIG. 74
# T8 construct: expressed in transfected cells
# Experimental: as §1, §2
# [14] = system: INS-1, a rat insulinoma cell; assay: glucose-dependent insulin secretion ability test in INS-1 (rat insulin ELISA); type: cell-based
# Experimental: In this regard, in order to confirm the effect of the HKFY derivative, a candidate GPR39 agonist, on insulin secretion ability, a glucose-dependent insulin secretion ability test was performed in INS-1 (Korea Cell Line Bank), a rat insulinoma cell (FIG. 75).
# Specifically, when INS-1 cells were treated with 1 or 10 μM of HKFY-34 in 2.8 mM glucose similar to a physiological blood glucose level or 11.1 mM glucose, a high blood glucose level, the insulin secretion ability was confirmed using a rat insulin ELISA.
# In addition, through GPR39 knock-down experiment using GPR39 siRNA, it was confirmed that HKFY-34 enhances insulin secretion through the GPR39 receptor.
# T3 sequence (Q9GZQ4 whole entry, species assumed): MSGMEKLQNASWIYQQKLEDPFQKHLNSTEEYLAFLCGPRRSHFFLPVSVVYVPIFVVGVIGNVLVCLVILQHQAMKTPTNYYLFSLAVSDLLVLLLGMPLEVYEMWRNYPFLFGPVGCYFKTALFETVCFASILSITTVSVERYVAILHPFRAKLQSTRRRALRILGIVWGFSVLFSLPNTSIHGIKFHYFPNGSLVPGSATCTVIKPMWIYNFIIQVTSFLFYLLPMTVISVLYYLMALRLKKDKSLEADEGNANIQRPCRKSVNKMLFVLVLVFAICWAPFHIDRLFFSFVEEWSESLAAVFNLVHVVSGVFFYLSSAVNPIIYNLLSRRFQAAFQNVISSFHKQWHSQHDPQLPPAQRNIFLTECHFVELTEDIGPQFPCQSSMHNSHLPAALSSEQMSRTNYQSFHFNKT
# T2 sequence (Q9HB89 whole entry): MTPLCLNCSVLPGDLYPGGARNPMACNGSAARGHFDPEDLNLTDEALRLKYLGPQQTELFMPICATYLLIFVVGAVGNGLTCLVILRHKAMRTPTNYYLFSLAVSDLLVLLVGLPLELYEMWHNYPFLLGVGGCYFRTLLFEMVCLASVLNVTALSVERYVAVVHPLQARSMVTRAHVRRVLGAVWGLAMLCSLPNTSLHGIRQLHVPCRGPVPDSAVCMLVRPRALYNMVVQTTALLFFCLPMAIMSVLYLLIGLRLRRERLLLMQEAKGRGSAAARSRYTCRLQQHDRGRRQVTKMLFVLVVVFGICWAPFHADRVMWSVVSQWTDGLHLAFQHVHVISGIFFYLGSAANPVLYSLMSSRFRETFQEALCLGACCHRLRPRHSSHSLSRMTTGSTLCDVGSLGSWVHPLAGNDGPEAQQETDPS
# T6 sequence (Q92847 whole entry, species assumed): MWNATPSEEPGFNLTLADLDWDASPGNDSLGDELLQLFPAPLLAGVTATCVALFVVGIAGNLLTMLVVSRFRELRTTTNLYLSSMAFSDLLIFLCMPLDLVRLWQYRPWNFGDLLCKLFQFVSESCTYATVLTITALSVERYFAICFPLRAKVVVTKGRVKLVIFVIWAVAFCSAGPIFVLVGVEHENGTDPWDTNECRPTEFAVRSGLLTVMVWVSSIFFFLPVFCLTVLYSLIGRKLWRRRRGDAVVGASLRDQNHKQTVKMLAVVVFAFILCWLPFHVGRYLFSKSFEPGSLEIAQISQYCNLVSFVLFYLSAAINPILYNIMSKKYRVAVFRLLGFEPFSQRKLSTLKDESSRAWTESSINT
# T7 sequence (P34981 whole entry, species assumed): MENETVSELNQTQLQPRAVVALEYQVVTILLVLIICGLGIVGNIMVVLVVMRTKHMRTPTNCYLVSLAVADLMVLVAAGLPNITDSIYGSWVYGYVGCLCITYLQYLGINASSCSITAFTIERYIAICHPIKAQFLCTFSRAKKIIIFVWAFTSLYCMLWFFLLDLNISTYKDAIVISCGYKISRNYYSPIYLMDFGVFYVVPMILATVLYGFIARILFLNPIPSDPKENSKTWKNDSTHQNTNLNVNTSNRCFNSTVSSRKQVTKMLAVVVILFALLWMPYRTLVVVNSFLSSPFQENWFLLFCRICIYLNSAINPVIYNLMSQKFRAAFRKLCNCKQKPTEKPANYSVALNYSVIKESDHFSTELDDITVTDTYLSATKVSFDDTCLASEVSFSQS
# T8 sequence (O95665 whole entry, species assumed): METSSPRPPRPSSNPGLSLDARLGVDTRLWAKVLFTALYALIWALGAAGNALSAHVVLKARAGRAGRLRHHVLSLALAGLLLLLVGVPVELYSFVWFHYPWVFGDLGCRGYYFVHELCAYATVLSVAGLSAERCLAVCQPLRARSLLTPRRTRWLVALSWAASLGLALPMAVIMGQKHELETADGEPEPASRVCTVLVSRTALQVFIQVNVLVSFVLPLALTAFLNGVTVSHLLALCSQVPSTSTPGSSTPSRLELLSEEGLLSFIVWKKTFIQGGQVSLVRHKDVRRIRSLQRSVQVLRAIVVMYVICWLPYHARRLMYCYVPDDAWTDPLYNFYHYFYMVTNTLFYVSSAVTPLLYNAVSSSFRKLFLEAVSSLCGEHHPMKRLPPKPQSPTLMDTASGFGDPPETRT
# T5 sequence (P30989 whole entry, species assumed): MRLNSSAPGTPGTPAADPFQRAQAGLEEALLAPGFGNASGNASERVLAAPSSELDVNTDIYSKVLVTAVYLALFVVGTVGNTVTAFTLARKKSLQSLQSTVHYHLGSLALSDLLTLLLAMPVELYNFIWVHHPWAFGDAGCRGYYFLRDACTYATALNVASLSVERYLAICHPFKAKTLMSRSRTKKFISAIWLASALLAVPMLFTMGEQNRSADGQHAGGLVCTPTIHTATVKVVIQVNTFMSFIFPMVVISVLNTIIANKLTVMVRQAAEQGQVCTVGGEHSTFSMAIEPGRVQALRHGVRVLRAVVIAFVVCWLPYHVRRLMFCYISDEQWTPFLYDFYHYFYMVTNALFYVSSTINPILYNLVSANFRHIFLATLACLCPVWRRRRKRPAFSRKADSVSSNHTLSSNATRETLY
# T4 sequence (O43193 whole entry, species assumed): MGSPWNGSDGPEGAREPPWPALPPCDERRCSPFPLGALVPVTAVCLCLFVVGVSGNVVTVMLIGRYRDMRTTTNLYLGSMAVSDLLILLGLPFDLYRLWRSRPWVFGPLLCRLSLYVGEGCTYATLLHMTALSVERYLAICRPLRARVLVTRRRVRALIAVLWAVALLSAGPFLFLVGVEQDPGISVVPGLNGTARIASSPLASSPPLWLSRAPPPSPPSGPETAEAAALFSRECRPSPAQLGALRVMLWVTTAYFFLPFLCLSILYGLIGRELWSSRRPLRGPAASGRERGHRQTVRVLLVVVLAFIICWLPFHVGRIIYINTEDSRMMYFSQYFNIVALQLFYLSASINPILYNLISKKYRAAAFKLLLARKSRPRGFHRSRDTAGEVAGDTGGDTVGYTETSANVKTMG
smiles,measurement,setting,value
"CCCCCCCC(=O)NCCCC[C@H](NC(=O)[C@@H](N)Cc1cn(C(c2ccccc2)c2ccccc2)cn1)C(=O)N[C@H](Cc1ccc(C)cc1)C(=O)N[C@@H](Cc1ccc(O)cc1)C(=O)O [HKFY-34, ((R)-2-((S)-2-((S)-2-amino-3-(1-benzhydryl-1H-imidazol-4-yl)propanamido)-6-octanamidohexanamido)-3-(p-tolyl)propanoyl)-L-tyrosine]",mRNA expression of Ins2,[1]; GPR39 siRNA treated group,hardly achieved
same,mRNA expression of Irs2,[1]; GPR39 siRNA treated group,hardly achieved
same,mRNA expression level of Ins2,"[1]; RT-PCR, FIG. 77",increased
same,mRNA expression level of Irs2,"[1]; RT-PCR, FIG. 77",increased
same,EC50,"[2]; EC50, CV-1 cells, GPR39 and SRE luciferase adenovirus, treated 6 hours, luminometer",7 ± 1 nM
same,binding capacity and activity to the GPR39 receptor (in words),"[2]; FIG. 73 and Table 4, luciferase and calcium influx assay",excellent
same,EC50,"[2]; Reporter gene assay EC50, Table 4, luciferase assay system",6.7 ± 0.7 nM
same,ECmax value (in words),[2]; comment on Table 3,high ECmax value
same,activity level for GPR39 (in words),[2]; comment on Table 3,higher activity level than other HJKFY derivatives
same,activity level for GPR39 (in words),"[2]; comment on Table 3, listed as HIKFY-34",most excellent activity
same,expression of pERK compared to ERK,[3],increased
same,expression of pPKA compared to PKA,[3],increased
same,glucose tolerance,[4],significant glucose tolerance in a concentration dependent manner
same,ECmax (-fold induction over basal),[5],22.39 ± 4.59 -fold induction over basal
same,Reporter gene assay ECmax (-fold induction over basal),[5],22.39 ± 4.59 -fold induction over basal
same,insulin secretion level,[6],increased
same,activity for NMU1,[7],very low
same,activity for NMU2,[8],very low
same,activity for MTLR,[9],very low
same,activity for NTSR1,[10],very low
same,activity for GHSR,[11],very low
same,activity for TRHR,[12],very low
same,activity for NTSR2,[13],very low
same,insulin secretion,"[14]; INS-1, high blood glucose level (11.1 mM glucose), 1 or 10 μM",enhanced at all treatment concentrations
same,change in insulin secretion level,"[14]; INS-1, low blood glucose level (2.8 mM glucose), 1 or 10 μM",insignificant
same,insulin secretion ability,"[14]; cells treated with GPR39 siRNA compared to scrambled siRNA, 11.1 mM glucose",not increased

# Reference: patent publication US20230212222A1 (ANYGEN CO., LTD., priority 2020, published 2023)
